Source: ChEMBL document CHEMBL1155519, “Discovery of N-phenyl-4-(thiazol-5-yl)pyrimidin-2-amine aurora kinase inhibitors” (J Med Chem, 2010)
≈ marks a conversion by molar mass, not a printed value. Calls of active or inactive are those of the source. No cut-off for these calls is given here.

Legend:
COLO 205 = assay: Cytotoxicity against human COLO205 cells after 96 hrs by MTT assay; format: functional, cell-based; details: COLO 205, 96 h
A549 [1] = assay: Cell cycle arrest in asynchronous human A549 cells assessed as accumulation of cyclin B1-negative tetraploid cells at G1 phase at 0.5 to 2 uM after 7 hrs by FACS analysis; format: functional, cell-based
CYP1A2 = assay: In vitro elimination half life at 5 uM in presence of human recombinant CYP1A2; format: ADME; details: read-out: beta t1/2
[2] = Oral bioavailability in mouse up to 100 mg/kg; format: ADME, organism-based; details: in vivo
[3] = Dissociation constant, pKa by pH-metric titration method; format: physicochemical
Mus musculus [4] = assay: Toxicity in athymic mouse xenografted with human NCI-H460 cells assessed as body weight loss at 100 mg/kg, po administered QD on day 1 after implantation for 5 days measured on day 8; format: organism-based; design: dose 100 mg/kg, route oral; details: in vivo, 120 h
Cytochrome P450 2C9 = Cytochrome P450 2C9 (Homo sapiens, UniProt P11712); assay: Inhibition of human recombinant CYP2C9 at 5 uM; format: ADME; details: recombinant enzyme
SW-620 [5] = assay: Induction of apoptosis in human SW620 cells assessed as early apoptotic cells at 1 uM after 48 hrs by TUNEL assay; format: functional
[6] = Inhibition of Aurora kinase in human A549 cells assessed as concentration required for half-maximal inhibition of histone H3 serine-10 phosphorylation after 7 hrs immunofluorescence microscopy; format: cell-based; details: A549, 7 h
NCI-H460 [7] = assay: Antitumor activity against human NCI-H460 cells xenografted in athymic mouse assessed as reduction in tumor volume at 75 mg/kg, po administered QD on day 1 after implantation for 5 days; format: functional, organism-based; design: dose 75 mg/kg
Mus musculus [8] = assay: Toxicity in athymic mouse xenografted with human NCI-H460 cells assessed as body weight loss at 75 mg/kg, po administered QD on day 1 after implantation for 5 days measured on day 13; format: organism-based; design: dose 75 mg/kg, route oral; details: in vivo, 120 h
Aurora kinase B = Aurora kinase B (Homo sapiens, UniProt Q96GD4); details: A549, 0.15 to 5 uM
Description: Inhibition of Aurora B phosphorylation in human A549 cells at 0.15 to 5 uM after 1 hr by Western blot analysis in presence of nocodazole and proteasome inhibitor MG132

HeLa [9] = assay: Inhibition of Aurora kinase in human HeLa cells assessed as reduction of histone H3 serine-10 phosphorylation at 1 uM after 7 hrs immunofluorescence microscopy; format: cell-based
[10] = biological target: Mitogen-activated protein kinase 14 (Homo sapiens, UniProt Q16539); assay: Inhibition of SAPK2A
[11] = Aqueous solubility by turbidimetric analysis; format: physicochemical
NCI-H460 [12] = assay: Antitumor activity against human NCI-H460 cells xenografted in athymic mouse assessed as reduction in mean tumor volume at 100 mg/kg, po administered QD on day 1 after implantation for 5 days measured on day 9 relative to control; format: functional; design: scale not given: the % may be the effect or the level left
HeLa [13] = assay: Cytotoxicity against human HeLa cells after 96 hrs by MTT assay; format: functional, cell-based
[14] = Clearance in Wistar rat at 10 mg/kg, po after 24 hrs by LC/MS/MS analysis; format: ADME, organism-based; design: dose 10 mg/kg, route oral; details: in vivo
SW-620 [15] = assay: Induction of apoptosis in human SW620 cells assessed as early apoptotic cells at 1 uM after 24 hrs by TUNEL assay; format: functional
NCI-H460 [16] = assay: Antitumor activity against human NCI-H460 cells xenografted in athymic mouse assessed as delay in tumor growth at 75 mg/kg, po administered QD on day 1 after implantation for 5 days; format: functional
[17] = Apparent permeability across human Caco-2 cell membrane; format: ADME, cell-based
A549 [18] = assay: Effect on mitotic index in asynchronous human A549 cells assessed as appearance of misaligned chromosomes with shortened spindle fibres at 0.5 uM after 8 hrs […]; format: functional, cell-based
Cytochrome P450 1A [19] = biological target: T1, Cytochrome P450 1A (Homo sapiens, UniProt P04798+P05177); assay: Inhibition of human recombinant CYP1A at 5 uM; format: ADME; details: recombinant enzyme
NCI-H460 [20] = assay: Antitumor activity against human NCI-H460 cells xenografted in athymic mouse assessed as reduction in tumor volume at 100 mg/kg, po administered QD on day 1 after implantation for 5 days; format: functional, organism-based; design: dose 100 mg/kg
[21] = Inhibition of CAMK2
SW-620 [22] = assay: Induction of apoptosis in human SW620 cells assessed as late apoptotic cells at 1 uM after 48 hrs by TUNEL assay; format: functional
[23] = Inhibition of PKC
MCF7 [24] = assay: Induction of p53 protein expression in human MCF7 cells at 0.07 to 10 uM after 7 hrs by fluorescent microscopy; format: functional, cell-based
CCRF-CEM = assay: Cytotoxicity against human CCRF-CEM cells after 96 hrs by MTT assay; format: functional, cell-based
Cytochrome P450 2C19 = Cytochrome P450 2C19 (Homo sapiens, UniProt P33261); assay: Inhibition of human recombinant CYP2C19 at 5 uM; format: ADME; details: recombinant enzyme
HuP-T4 = assay: Cytotoxicity against human HUPT4 cells after 96 hrs by MTT assay; format: functional, cell-based; details: HuP-T4, 96 h
MCF7 [25] = assay: Cytotoxicity against human MCF7 cells after 96 hrs by MTT assay; format: functional, cell-based; details: MCF7, 96 h
NCI-H460 [26] = assay: Antitumor activity against human NCI-H460 cells xenografted in athymic mouse assessed as delay in tumor growth at 100 mg/kg, po administered QD on day 1 after implantation for 5 days; format: functional
[27] = Inhibition of PKA
[28] = Cmax in Wistar rat at 10 mg/kg, po after 24 hrs by LC/MS/MS analysis; format: ADME, organism-based; design: dose 10 mg/kg, route oral; details: in vivo
U2OS = assay: Inhibition of Aurora kinase in asynchronous human U2OS cells assessed as reduction of histone H3 serine-10 phosphorylation at 150 nM after 7 hrs immunofluorescence microscopy; format: cell-based
HT-29 = assay: Cytotoxicity against human HT-29 cells after 96 hrs by MTT assay; format: functional, cell-based; details: HT-29, 96 h
NCI-H460 [29] = assay: Cytotoxicity against human NCI-H460 cells after 96 hrs by MTT assay; format: functional, cell-based; details: NCI-H460, 96 h
[30] = biological target: Cyclin-dependent kinase 7/ cyclin H (Homo sapiens, UniProt P50613); assay: Inhibition of CDK7/Cyclin H; format: protein-complex assay
Cytochrome P450 2D6 = Cytochrome P450 2D6 (Homo sapiens, UniProt P10635); assay: Inhibition of human recombinant CYP2D6 at 5 uM; format: ADME; details: recombinant enzyme
[31] = Octanol-aqueous buffer partition coefficient, log D at pH 7.4 by shake-flask method; format: physicochemical
SAOS-2 = assay: Cytotoxicity against human Saos2 cells after 96 hrs by MTT assay; format: functional, cell-based; details: SAOS-2, 96 h
Liver microsomes = assay: Intrinsic clearance in rat liver microsomes by LC/MS/MS analysis; format: ADME, Microsome
K562 = assay: Cytotoxicity against human K562 cells after 96 hrs by MTT assay; format: functional, cell-based; details: K562, 96 h
[32] = Antitumor activity against mouse P388D1 cells xenografted in BALB/c mouse assessed as increase in life span at 45 mg/kg, po administered BID on days 1-3 and 7-9 after tumor implantation relative to control
Cytochrome P450 1A [33] = biological target: T1, Cytochrome P450 1A; assay: Inhibition of CYP1A in human hepatocyte at 1 uM; format: ADME, cell-based; details: hepatocytes
[34] = biological target: Aurora kinase A (Homo sapiens) (UniProt O14965); assay: Inhibition of Aurora A phosphorylation in human A549 cells at 0.15 to 5 uM after 1 hr by Western blot analysis in presence of nocodazole and proteasome inhibitor MG132; format: cell-based
Chain of Aurora kinase A (Homo sapiens) (O14965 whole entry): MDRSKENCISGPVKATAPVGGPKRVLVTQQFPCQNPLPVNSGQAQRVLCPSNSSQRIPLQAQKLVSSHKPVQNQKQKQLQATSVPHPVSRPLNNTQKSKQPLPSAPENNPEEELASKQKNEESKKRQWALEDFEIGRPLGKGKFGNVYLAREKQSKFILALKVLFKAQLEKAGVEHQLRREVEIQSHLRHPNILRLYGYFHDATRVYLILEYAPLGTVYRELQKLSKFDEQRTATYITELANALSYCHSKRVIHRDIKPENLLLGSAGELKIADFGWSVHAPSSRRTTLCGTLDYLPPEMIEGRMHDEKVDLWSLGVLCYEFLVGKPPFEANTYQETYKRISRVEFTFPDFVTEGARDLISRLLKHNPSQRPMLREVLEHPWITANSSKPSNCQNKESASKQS

Chain of Cyclin-dependent kinase 7/ cyclin H (P51946 whole entry): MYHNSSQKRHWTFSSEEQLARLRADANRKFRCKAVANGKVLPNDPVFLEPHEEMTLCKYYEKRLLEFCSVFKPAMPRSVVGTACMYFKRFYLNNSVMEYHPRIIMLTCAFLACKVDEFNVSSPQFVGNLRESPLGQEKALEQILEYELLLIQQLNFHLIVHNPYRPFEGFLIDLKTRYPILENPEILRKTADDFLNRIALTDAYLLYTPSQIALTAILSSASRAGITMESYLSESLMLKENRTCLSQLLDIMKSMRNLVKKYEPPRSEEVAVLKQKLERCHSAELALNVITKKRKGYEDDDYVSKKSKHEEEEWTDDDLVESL
Chain of Cyclin-dependent kinase 7/ cyclin H (P50613 whole entry): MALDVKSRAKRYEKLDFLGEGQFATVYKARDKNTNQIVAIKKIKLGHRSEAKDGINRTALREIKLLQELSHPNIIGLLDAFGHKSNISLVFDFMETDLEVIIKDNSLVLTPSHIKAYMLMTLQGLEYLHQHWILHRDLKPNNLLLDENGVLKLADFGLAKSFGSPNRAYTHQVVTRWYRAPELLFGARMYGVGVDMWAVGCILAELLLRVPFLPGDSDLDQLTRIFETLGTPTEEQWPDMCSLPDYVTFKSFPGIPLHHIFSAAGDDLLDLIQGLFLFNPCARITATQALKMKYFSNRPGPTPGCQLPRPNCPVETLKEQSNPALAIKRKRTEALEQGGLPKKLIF
Chain of Mitogen-activated protein kinase 14 (Q16539 whole entry): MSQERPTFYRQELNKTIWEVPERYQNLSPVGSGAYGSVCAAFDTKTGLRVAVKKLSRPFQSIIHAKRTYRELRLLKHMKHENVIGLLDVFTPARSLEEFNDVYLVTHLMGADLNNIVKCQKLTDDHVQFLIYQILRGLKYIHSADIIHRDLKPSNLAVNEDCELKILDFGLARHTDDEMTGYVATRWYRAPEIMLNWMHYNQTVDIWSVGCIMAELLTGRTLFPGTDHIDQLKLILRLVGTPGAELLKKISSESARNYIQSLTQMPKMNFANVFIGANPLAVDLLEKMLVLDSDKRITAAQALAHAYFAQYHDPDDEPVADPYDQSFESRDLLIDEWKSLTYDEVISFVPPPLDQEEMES
Chain of Aurora kinase B (Q96GD4 whole entry): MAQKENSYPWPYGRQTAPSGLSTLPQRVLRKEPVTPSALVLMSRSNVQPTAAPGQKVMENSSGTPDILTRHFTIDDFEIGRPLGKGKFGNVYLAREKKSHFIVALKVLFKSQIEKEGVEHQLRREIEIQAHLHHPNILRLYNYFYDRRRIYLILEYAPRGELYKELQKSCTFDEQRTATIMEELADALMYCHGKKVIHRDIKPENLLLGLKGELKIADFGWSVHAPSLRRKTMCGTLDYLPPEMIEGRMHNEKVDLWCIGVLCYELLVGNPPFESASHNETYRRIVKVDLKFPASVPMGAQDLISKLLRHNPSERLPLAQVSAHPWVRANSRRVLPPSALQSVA
Chain of Cytochrome P450 2D6 (P10635 whole entry): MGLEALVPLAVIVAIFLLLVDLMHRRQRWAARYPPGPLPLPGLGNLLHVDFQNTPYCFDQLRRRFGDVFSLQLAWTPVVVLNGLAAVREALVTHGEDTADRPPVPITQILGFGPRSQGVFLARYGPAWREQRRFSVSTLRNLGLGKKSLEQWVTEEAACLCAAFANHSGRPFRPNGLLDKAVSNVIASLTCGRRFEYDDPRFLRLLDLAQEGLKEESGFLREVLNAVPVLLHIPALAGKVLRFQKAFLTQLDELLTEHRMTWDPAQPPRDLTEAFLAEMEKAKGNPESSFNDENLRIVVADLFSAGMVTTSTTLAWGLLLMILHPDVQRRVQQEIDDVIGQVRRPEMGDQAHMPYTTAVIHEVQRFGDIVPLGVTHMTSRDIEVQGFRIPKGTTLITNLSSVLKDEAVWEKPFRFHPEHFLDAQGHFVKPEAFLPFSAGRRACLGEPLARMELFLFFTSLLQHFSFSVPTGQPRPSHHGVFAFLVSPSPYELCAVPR
Chain of Cytochrome P450 2C19 (P33261 whole entry): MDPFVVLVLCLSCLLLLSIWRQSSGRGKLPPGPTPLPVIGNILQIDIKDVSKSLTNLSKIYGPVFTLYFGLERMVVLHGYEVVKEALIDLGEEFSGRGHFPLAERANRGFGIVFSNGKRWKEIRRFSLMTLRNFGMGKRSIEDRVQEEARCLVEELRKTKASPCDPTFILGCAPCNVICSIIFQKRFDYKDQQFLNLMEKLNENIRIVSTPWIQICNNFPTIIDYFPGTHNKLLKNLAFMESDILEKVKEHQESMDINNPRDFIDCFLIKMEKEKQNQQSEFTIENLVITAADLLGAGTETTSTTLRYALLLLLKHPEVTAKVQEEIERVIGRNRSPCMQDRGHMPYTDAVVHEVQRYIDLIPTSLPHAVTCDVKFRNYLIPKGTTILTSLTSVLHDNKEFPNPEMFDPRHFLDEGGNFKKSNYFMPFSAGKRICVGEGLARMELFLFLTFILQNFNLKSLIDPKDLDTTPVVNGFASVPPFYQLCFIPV
Chain of Cytochrome P450 2C9 (P11712 whole entry): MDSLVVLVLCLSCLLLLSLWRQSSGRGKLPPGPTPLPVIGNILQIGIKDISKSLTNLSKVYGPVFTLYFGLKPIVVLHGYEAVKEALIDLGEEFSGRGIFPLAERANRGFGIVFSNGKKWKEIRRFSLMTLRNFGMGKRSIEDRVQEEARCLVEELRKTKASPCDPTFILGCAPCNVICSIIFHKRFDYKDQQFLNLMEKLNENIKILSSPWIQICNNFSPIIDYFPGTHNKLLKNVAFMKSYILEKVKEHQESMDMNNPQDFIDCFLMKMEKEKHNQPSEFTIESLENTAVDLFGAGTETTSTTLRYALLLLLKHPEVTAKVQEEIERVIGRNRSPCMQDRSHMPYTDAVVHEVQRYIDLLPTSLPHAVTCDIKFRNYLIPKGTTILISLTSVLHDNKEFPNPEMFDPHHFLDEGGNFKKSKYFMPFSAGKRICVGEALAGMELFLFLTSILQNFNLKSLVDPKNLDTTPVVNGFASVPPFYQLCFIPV

## Cc1nc(N)sc1-c1ccnc(Nc2ccc(N3CCOCC3)cc2)n1 [CYC-116]
COLO 205
  IC50: 241 nM
A549 [1]
  Activity: Active
CYP1A2
  half-life at 5 µM: 1.2 h
[2]
  bioavailability: ≤ 61%
[3]
  pKa: 4.4
Mus musculus [4]
  Activity: Toxic
Cytochrome P450 2C9
  inhibition (INH): Active
SW-620 [5]
  Activity: 64.8%
[6]
  IC50: 480 nM
NCI-H460 [7]
  Activity: Active
Mus musculus [8]
  Activity: Non-toxic
Aurora kinase B
  inhibition: Active
HeLa [9]
  inhibition: Active
[10]
  Ki: > 10000 nM
[11]
  solubility kinetic: 10.5 µM (≈ 3.87 µg/mL)
NCI-H460 [12]
  Activity: 19%
HeLa [13]
  IC50: 590 nM
[14]
  CL/F: 33.3 mL/min/kg
SW-620 [15]
  Activity: 91%
NCI-H460 [16]
  Activity: 2.3 days
[17]
  Papp: 47 ×10⁻⁶ cm/s
A549 [18]
  Activity: Active
Cytochrome P450 1A [19]
  inhibition (INH): Active
NCI-H460 [20]
  Activity: Active
[21]
  Ki: > 10000 nM
SW-620 [22]
  Activity: 34.7%
[23]
  Ki: > 10000 nM
MCF7 [24]
  Activity: inactive
CCRF-CEM
  IC50: 471 nM
Cytochrome P450 2C19
  inhibition (INH): Active
HuP-T4
  IC50: 775 nM
MCF7 [25]
  IC50: 599 nM
NCI-H460 [26]
  Activity: 5.8 days
[27]
  Ki: > 10000 nM
[28]
  Cmax: 3.9 µM
U2OS
  Activity: inactive
HT-29
  IC50: 725 nM
NCI-H460 [29]
  IC50: 681 nM
[30]
  Ki: > 10000 nM
Cytochrome P450 2D6
  inhibition (INH): Active
[31]
  logD: 2.74
SAOS-2
  IC50: 110 nM
Liver microsomes
  clearance: 42.3 µL/min/mg
K562
  IC50: 1380 nM
[32]
  Activity: 172%
Cytochrome P450 1A [33]
  inhibition (INH): Not Active
[34]
  inhibition: Active
